Laboratory results as given in patent US6667335B2, “Imidazole derivatives” (Hoffmann-La Roche Inc., priority 2001, dated 2003).
Counter-ions that a name gives are not always drawn.

| melting point | SMILES |
| --- | --- |
| 230 to 233 °C | Cc1cc(-n2cnc(Cn3ccnc3N)c2)ccc1Cl (as salt: hydrochloride) [Example 105, 1-[1-(4-Chloro-3-methyl-phenyl)-1H-imidazol-4-yl-methyl]-1H-imidazol-2-yl-amine-, Hydrochloride (1:2)] |
| 234 to 236 °C | CCc1nccn1Cc1cn(-c2cccc(SC(F)(F)F)c2)cn1 (as salt: hydrochloride) [Example 143] |
| > 200 °C (dec.) | CCc1nccn1Cc1cn(-c2ccc(F)c(C(C)(F)F)c2)cn1 (as salt: hydrochloride) [Example 151, 1H-Imidazole, 1-[[1-1-[3-(1,1-Difluoroethyl)-4-fluorophenyl]-1H-imidazol-4-yl]methyl]-ethyl-, Hydrochloride (1:2)] |
| > 200 °C (dec.) | CCc1nccn1Cc1cn(-c2cccc(C(C)C)c2)cn1 (as salt: hydrochloride) [Example 153] |
| 247 to 248 °C | Cc1nccn1Cc1cn(-c2ccc3ccccc3c2)cn1 (as salt: hydrochloride) [Example 155, 1H-Imidazole, 2-Methyl-1-[[1-(naphtalen-2-yl)-1H-imidazol-4-yl]methyl]-, Hydrochloride (1:2)] |
| > 200 °C (dec.) | Cc1nccn1Cc1cn(-c2cccc(Cl)c2)cn1 (as salt: hydrochloride) [Example 173] |
| 245 to 246 °C | CCc1nccn1Cc1cn(-c2cc(OC)cc(C(F)(F)F)c2)cn1 (as salt: hydrochloride) [Example 181] |
| 160 °C | Cc1nccn1Cc1cn(-c2ccc3ccccc3n2)cn1 (as salt: sodium) [Example 204, 2-[4-(2-Methyl-imidazol-1-ylmethyl)-imidazol-1-yl]-quinoline] |
| > 80 °C (dec.) | CCc1nccn1Cc1cn(-c2ccc3ccccc3n2)cn1 (as salt: sodium) [Example 205, 2-[4-(2-Ethyl-imidazol-1-ylmethyl)-imidazol-1-yl]-quinoline] |
| > 150 °C (dec.) | c1ccc2nc(-n3cnc(Cn4ccnc4)c3)ccc2c1 (as salt: sodium) [Example 206, 2-(4-Imidazol-1-ylmethyl-imidazol-1-yl)-quinoline] |
| 132 to 136 °C | CCc1nccn1Cc1cn(-c2cnc3ccccc3c2)cn1 (as salt: sodium) [Example 210, 3-[4-(2-Ethyl-imidazol-1-ylmethyl)-imidazol-1-yl]-quinoline] |
| 168 to 172 °C | Cc1nccn1Cc1cn(-c2cnc3ccccc3c2)cn1 (as salt: sodium) [Example 211, 3-[4-(2-Methyl-imidazol-1-ylmethyl)-imidazol-1-yl]-quinoline] |
| 192 to 196 °C | Cc1nccn1Cc1cn(-c2ccc(Cl)cn2)cn1 (as salt: sodium) [Example 212, 5-Chloro-2-[4-(2-methyl-imidazol-1-ylmethyl)-imidazol-1-yl]-pyridine] |
| 182 to 185 °C | CCc1nccn1Cc1cn(-c2ccc(Cl)cn2)cn1 (as salt: sodium) [Example 213, 5-Chloro-2-[4-(2-ethyl-imidazol-1-ylmethyl)-imidazol-1-yl]-pyridine] |
| > 125 °C (dec.) | Cc1nccn1Cc1cn(-c2ccc3ncccc3c2)cn1 (as salt: sodium) [Example 220, 6-[4-(2-Methyl-imidazol-1-ylmethyl)-imidazol-1-yl]-quinoline] |
| > 79 °C (dec.) | CCc1nccn1Cc1cn(-c2ccc3ncccc3c2)cn1 (as salt: sodium) [Example 221, 6-[4-(2-Ethyl-imidazol-1-ylmethyl)-imidazol-1-yl]-quinoline] |
| 150 to 154 °C | Cc1nccn1Cc1cn(-c2cccc3cccnc23)cn1 (as salt: sodium) [Example 222, 8-[4-(2-Methyl-imidazol-1-ylmethyl)-imidazol-1-yl]-quinoline] |
| 78 to 81 °C | CCc1nccn1Cc1cn(-c2cccc3cccnc23)cn1 (as salt: sodium) [Example 223, 8-[4-(2-Ethyl-imidazol-1-ylmethyl)-imidazol-1-yl]-quinoline] |
